In patent US5614521A, “Benzene derivatives having NGF production-promoting activity” (Sankyo Company, Limited, priority 1991, dated 1997):

Tested on: L-M cells
Assay: NGF production and secretion by mouse L-M cells (NGF promoter activity), NGF level by enzyme immunoassay
Assay type: cell-based
Conditions: 24 h, read-out: % Control (NGF produced and secreted relative to cells not treated with the test compounds)
Source text: Furukawa et al. have reported that fibroblast-forming L-M cells from mouse connective tissue can produce and secrete a relatively large amount of NGF, and that catecholamines accelerate such production and secretion of NGF (J. Biol. Chem., 261, 6039-6047, 1986). […] The test compounds of this invention were employed at 10 γ/ml, and the known compounds were employed at 20 γ/ml.
Culture medium 199 containing 0.5% peptone was used for culturing L-M cells (for the culture medium 199, see, for instance, Morgan et al., proc. Soc. Exp. Biol. Med., 73, 1 (1950) or Morgan et al. J. Natl. Cancer Inst., 16, 557 (1955). About […] of L-M cells were placed in each well of a culture plate with 24 wells, and cultured using a CO2 incubator (37° C., 5% CO2) until confluence. After removing the culture medium, the cultured cells were washed once with a wash solution which was 199 culture medium containing 0.5% bovine serum albumin (Fraction V, Sigma). The test compounds were added to a specified concentration to a 199 culture medium containing 0.5% bovine serum albumin, and used to treat 0.5 ml of L-M cells. After culturing the L-M cells in a CO2 incubator for 24 hours, the medium was recovered and the NGF level was determined.
NGF was quantitatively determined using an enzyme immunoassay [Korshing, Thoenen, et al. Proc. Natl. Acad. Sci. USA, 80, 3513-3516, (1983)]. 75 μl of a solution of anti-mouse β-NGF antibody (0.3 μg/ml, pH 9.6; Boehringer Mannheim) was piperted into each well of a polystyrene plate with 96 wells. After allowing the plate to stand at room temperature for an hour, the antibody was removed by washing three times with the wash solution. 50 μl of a solution of standard β-NGF (Wako Pure Chemical Industries Ltd.) or of the recovered medium was piperted into the wells. After allowing the plate to stand for […] at room temperature,the standard β-NGF or test solution was removed and each well was washed three times. 50 μl of a solution of β-NGF monoclonal antibody (100 mU/ml, pH 7.0; BoehringerMannheim) labelled with β-galactosidase was piperted into each well. After allowing the plate to stand at 4° C. for 15-18 hours, enzyme labelled antibody was removed and the wells washed three times followed by pipetting 100 μl of a solution of chlorophenol red-β-D-galactopyranoside (1 mg/ml, pH 7.3; BoehringerMannheim) into each well. Color was allowed to develop (after 2-3 hours at room temperature), and the absorbance was determined at 570 nm.
The amount of NGF was calculated from a standard curve. The results are expressed as a relative value (%) which is relative to the amount of NGF produced and secreted by cells treated not with the test compounds. The numerical values (% Control) are expressed by the mean value in the 3 wells of the control (without addition of the test compounds).

`CNC[C@H](O)c1ccc(O)c(O)c1` [epinephrine, reference compound] gave an activity at 20 µg/mL of 140 ± 24%.

Same assay, conditions: known compounds at 20 γ/ml, L-M cells, 24 hours, 37° C., read-out: % Control (NGF produced and secreted relative to cells not treated with the test compounds)

Point of comparison: `N[C@@H](Cc1ccc(O)c(O)c1)C(=O)O` [L-DOPA, reference compound], activity at 20 µg/mL 117 ± 7%. Against it:
- O=C(O)/C=C/c1ccc(O)c(O)c1 [caffeic Acid, reference compound] — within error, 123 ± 14%
- CC(C)NCC(O)c1ccc(O)c(O)c1 (stereo not drawn) [isoproterenol, reference compound] — higher, 168 ± 22%

Same assay, conditions: test compounds of this invention at 10 γ/ml, L-M cells, 24 hours, 37° C., read-out: % Control (NGF produced and secreted relative to cells not treated with the test compounds)

Point of comparison: `Nc1ccc(CCC(=O)N(c2ccccc2)c2ccccc2)cc1N` [Example 40, N,N-Diphenyl-3-(3,4-diaminophenyl) propionamide], activity at 10 µg/mL 276%. Against it:
- Nc1ccc(CCC(=O)NC23CC4CC(CC(C4)C2)C3)cc1N [Example 22, N-(1-Adamantyl)-3-(3,4-diaminophenyl)propionamide] — higher, 380%
- Nc1ccc(CCC(=O)Nc2cnc3ccccc3c2)cc1N [Example 34, N-(3-Quinolyl)-3-(3,4-diaminophenyl)propiomide] — higher, 606%
- Nc1ccc(CCC(=O)Nc2ccc(C(=O)c3ccccc3)cc2)cc1N [Example 43, N-(4-Benzoylphenyl)-3-(3,4-diaminophenyl)propionamide] — higher, 491%
- Nc1cc(CCC(=O)NC2CCc3ccccc32)ccc1O (stereo not drawn) [Example 53, N-(1-Indanyl)-3-(4-hydroxy-3-aminophenyl)propionamide] — higher, 315%
